Experiments:
Experiment in all cases: relative viability (nuclei count vs DMSO), 5 days (fraction); higher = more cells survive
[1] = compound: CC(C)N(CCCNC(=O)Nc1ccc(C(C)(C)C)cc1)C[C@H]1O[C@@H](n2ccc3c(N)ncnc32)[C@H](O)[C@@H]1O + Cc1nc(Nc2ncc(C(=O)Nc3c(C)cccc3Cl)s2)cc(N2CCN(CCO)CC2)n1 [Dasatinib] (partner 0.075 µM)
Summary of the method: (§1)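 Relative viability is defined as nuclei in treated wells over nuclei in vehicle wells. Duplicate plates were run and medians reported. Lung cancer cell lines in 1536-well plates were dosed by pin tool one day after seeding, with one drug or with a fixed anchor-drug dose plus five library-drug doses (not always all listed) in √10 steps, and nuclei were counted after 5 days.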

[2] = compound: CC(C)N(CCCNC(=O)Nc1ccc(C(C)(C)C)cc1)C[C@H]1O[C@@H](n2ccc3c(N)ncnc32)[C@H](O)[C@@H]1O + CCNC(=O)c1noc(-c2cc(C(C)C)c(O)cc2O)c1-c1ccc(CN2CCOCC2)cc1 [Luminespib] (partner 0.01 µM)
Summary of the method: as §1

Shikonin + Bortezomib = compound: CC(C)=CC[C@@H](O)C1=CC(=O)c2c(O)ccc(O)c2C1=O [Shikonin] + CC(C)C[C@H](NC(=O)[C@H](Cc1ccccc1)NC(=O)c1cnccn1)B(O)O [Bortezomib] (partner 0.002 µM)
Summary of the method: as §1

Shikonin + Decitabine = compound: CC(C)=CC[C@@H](O)C1=CC(=O)c2c(O)ccc(O)c2C1=O [Shikonin] + Nc1ncn([C@H]2C[C@H](O)[C@@H](CO)O2)c(=O)n1 [Decitabine] (partner 2 µM)
Summary of the method: as §1

PC-3 [JPC-3] showed a relative viability ([1]; first compound 0.08 µM) of 0.921, a relative viability ([1]; first compound 0.253 µM) of 0.971 and a relative viability ([1]; first compound 0.8 µM) of 0.884. It also gave a relative viability ([1]; first compound 2.53 µM) of 0.892, a relative viability ([1]; first compound 8 µM) of 0.868 and a relative viability ([2]; first compound 0.08 µM) of 0.699. It also gave a relative viability ([2]; first compound 0.253 µM) of 0.704, a relative viability ([2]; first compound 0.8 µM) of 0.779 and a relative viability ([2]; first compound 2.53 µM) of 0.71. It also gave a relative viability ([2]; first compound 8 µM) of 0.683, a relative viability (Shikonin + Bortezomib; first compound 0.01 µM) of 0.824 and a relative viability (Shikonin + Bortezomib; first compound 0.1 µM) of 0.894. The relative viability (Shikonin + Bortezomib; first compound 0.3162 µM) was 0.837, the relative viability (Shikonin + Bortezomib; first compound 1 µM) was 0.868 and the relative viability (Shikonin + Decitabine; first compound 0.01 µM) was 0.765. It also gave a relative viability (Shikonin + Decitabine; first compound 0.1 µM) of 0.896, a relative viability (Shikonin + Decitabine; first compound 0.3162 µM) of 0.843 and a relative viability (Shikonin + Decitabine; first compound 1 µM) of 0.82.
In the case of PC-14, the relative viability ([1]; first compound 0.08 µM) is reported as 0.223, the relative viability ([1]; first compound 0.253 µM) is reported as 0.292 and the relative viability ([1]; first compound 0.8 µM) is reported as 0.233. For the same cell line, the relative viability ([1]; first compound 2.53 µM) was 0.247, the relative viability ([1]; first compound 8 µM) was 0.275 and the relative viability ([2]; first compound 0.08 µM) was 0.109. It also gave a relative viability ([2]; first compound 0.253 µM) of 0.24, a relative viability ([2]; first compound 0.8 µM) of 0.213 and a relative viability ([2]; first compound 2.53 µM) of 0.175. The relative viability ([2]; first compound 8 µM) was 0.181, the relative viability (Shikonin + Bortezomib; first compound 0.01 µM) was 0.973 and the relative viability (Shikonin + Bortezomib; first compound 0.1 µM) was 0.953. It also gave a relative viability (Shikonin + Bortezomib; first compound 0.3162 µM) of 1.02, a relative viability (Shikonin + Bortezomib; first compound 1 µM) of 0.881 and a relative viability (Shikonin + Decitabine; first compound 0.01 µM) of 0.216. For the same cell line, the relative viability (Shikonin + Decitabine; first compound 0.1 µM) was 0.278, the relative viability (Shikonin + Decitabine; first compound 0.3162 µM) was 0.413 and the relative viability (Shikonin + Decitabine; first compound 1 µM) was 0.161.
Cell Line RERF-LC-KJ has a relative viability ([1]; first compound 0.08 µM) of 0.837, a relative viability ([1]; first compound 0.253 µM) of 0.888 and a relative viability ([1]; first compound 0.8 µM) of 0.79. For the same cell line, the relative viability ([1]; first compound 2.53 µM) was 0.778, the relative viability ([1]; first compound 8 µM) was 0.799 and the relative viability ([2]; first compound 0.08 µM) was 1.2. The relative viability ([2]; first compound 0.253 µM) was 1.22, the relative viability ([2]; first compound 0.8 µM) was 1.33 and the relative viability ([2]; first compound 2.53 µM) was 1.18. For the same cell line, the relative viability ([2]; first compound 8 µM) was 1.19, the relative viability (Shikonin + Bortezomib; first compound 0.01 µM) was 1.08 and the relative viability (Shikonin + Bortezomib; first compound 0.1 µM) was 1.19. It also gave a relative viability (Shikonin + Bortezomib; first compound 0.3162 µM) of 1.28, a relative viability (Shikonin + Bortezomib; first compound 1 µM) of 0.986 and a relative viability (Shikonin + Decitabine; first compound 0.01 µM) of 0.782. For the same cell line, the relative viability (Shikonin + Decitabine; first compound 0.1 µM) was 0.703, the relative viability (Shikonin + Decitabine; first compound 0.3162 µM) was 0.636 and the relative viability (Shikonin + Decitabine; first compound 1 µM) was 0.653.
For SK-LU-1, the relative viability ([1]; first compound 0.08 µM) was 0.18, the relative viability ([1]; first compound 0.253 µM) was 0.184 and the relative viability ([1]; first compound 0.8 µM) was 0.19. It also gave a relative viability ([1]; first compound 2.53 µM) of 0.184, a relative viability ([1]; first compound 8 µM) of 0.207 and a relative viability ([2]; first compound 0.08 µM) of 0.193. It also gave a relative viability ([2]; first compound 0.253 µM) of 0.202, a relative viability ([2]; first compound 0.8 µM) of 0.182 and a relative viability ([2]; first compound 2.53 µM) of 0.252. The relative viability ([2]; first compound 8 µM) was 0.191, the relative viability (Shikonin + Bortezomib; first compound 0.01 µM) was 1.14 and the relative viability (Shikonin + Bortezomib; first compound 0.1 µM) was 0.984. The relative viability (Shikonin + Bortezomib; first compound 0.3162 µM) was 1.34, the relative viability (Shikonin + Bortezomib; first compound 1 µM) was 1.58 and the relative viability (Shikonin + Decitabine; first compound 0.01 µM) was 0.631. The relative viability (Shikonin + Decitabine; first compound 0.1 µM) was 0.688, the relative viability (Shikonin + Decitabine; first compound 0.3162 µM) was 0.59 and the relative viability (Shikonin + Decitabine; first compound 1 µM) was 0.635.
For SW 1573, the relative viability ([1]; first compound 0.08 µM) was 0.475, the relative viability ([1]; first compound 0.253 µM) was 0.463 and the relative viability ([1]; first compound 0.8 µM) was 0.579. It also gave a relative viability ([1]; first compound 2.53 µM) of 0.704, a relative viability ([1]; first compound 8 µM) of 0.474 and a relative viability ([2]; first compound 0.08 µM) of 0.348. It also gave a relative viability ([2]; first compound 0.8 µM) of 0.356, a relative viability ([2]; first compound 2.53 µM) of 0.172 and a relative viability ([2]; first compound 8 µM) of 0.194. The relative viability (Shikonin + Bortezomib; first compound 0.01 µM) was 1.12, the relative viability (Shikonin + Bortezomib; first compound 0.1 µM) was 1.39 and the relative viability (Shikonin + Bortezomib; first compound 0.3162 µM) was 1.06. For the same cell line, the relative viability (Shikonin + Bortezomib; first compound 1 µM) was 0.955, the relative viability (Shikonin + Decitabine; first compound 0.01 µM) was 0.446 and the relative viability (Shikonin + Decitabine; first compound 0.1 µM) was 0.686. It also gave a relative viability (Shikonin + Decitabine; first compound 0.3162 µM) of 0.261 and a relative viability (Shikonin + Decitabine; first compound 1 µM) of 0.135.

— the supplement of paper PMC10307832
